The solubility is how much of the substance goes into solution per volume. A higher solubility goes with much dissolved substance. The term half-life denotes the time needed for the level to fall by half in the phase considered. A word on the IC50: it is the concentration that inhibits the measured activity by half.

≈ marks a conversion by molar mass, not a printed value. Calls of active or inactive are those of the source.

The results in this text go back to ChEMBL document CHEMBL1833826, “Evaluation of PI polyamide conjugates with eight-base pair recognition and improvement of the aqueous solubility by PEGylation” (Bioorg Med Chem, 2011).

Data set [1] can be described thus: Solubility of the compound in Milli-Q water at 25 degC. It is filed as physicochemical.
A short description of data set [2]: Chemical stability of the compound in 5 mM sodium phosphate buffer containing 10% DMF at pH 7 assessed as half life by HPLC analysis. Type of data set: physicochemical.
The next data set concerns A549. The experiment in a line: Cytotoxicity against human A549 cells after 48 hrs. Type of data set: functional, cell-based. Particulars: A549, 48 h.
The next data set relates to DU-145. The experiment in a line: Cytotoxicity against human DU145 cells after 48 hrs. The note with it: DU-145, 48 h. It is filed as functional, cell-based.
The subject of data set [3] is Nucleic Acid. Put plainly: Induction of 5'-Texas Red-labelled 208-bp DNA alkylation at 5'-TCCATCCA-3' sequence at 25 to 200 nM after 18 hrs followed by quenching with calf thymus DNA by PAGE analysis. Type of data set: nucleic-acid assay. Particulars: Homo sapiens.
For data set [4], the system named is Nucleic Acid. Put plainly: Induction of 5'-Texas Red-labelled 208-bp DNA alkylation at 5'-GTCATCCA-3' sequence at 25 to 200 nM after 18 hrs followed by quenching with calf thymus DNA by PAGE analysis. It is filed as nucleic-acid assay.
Data set [5] has as its system Nucleic Acid. Put plainly: Induction of 5'-Texas Red-labelled 208-bp DNA alkylation at 5'-TGCATCCA-3' sequence at 25 to 200 nM after 18 hrs followed by quenching with calf thymus DNA by PAGE analysis. It is filed as nucleic-acid assay.
The subject of data set [6] is Nucleic Acid. Put plainly: Induction of 5'-Texas Red-labelled 208-bp DNA alkylation at 5'-ATTCACTA-3' sequence at 25 to 200 nM after 18 hrs followed by quenching with calf thymus DNA by PAGE analysis. Type of data set: nucleic-acid assay. The note with it: Homo sapiens.
Data set [7] relates to Nucleic Acid. Put plainly: Induction of 5'-Texas Red-labelled 208-bp DNA alkylation at 5'-ATTTGTCA-3' sequence at 25 to 200 nM after 18 hrs followed by quenching with calf thymus DNA by PAGE analysis. The note with it: Homo sapiens. It is filed as nucleic-acid assay.
Data set [8] relates to Nucleic Acid. The experiment in a line: Induction of 5'-Texas Red-labelled 208-bp DNA alkylation at 5'-AATACTCA-3' sequence at 25 to 200 nM after 18 hrs followed by quenching with calf thymus DNA by PAGE analysis. Type of data set: nucleic-acid assay.

As to `COCCNC(=O)Oc1cc2c(c3ccccc13)C(CCl)CN2C(=O)c1cc2cc(NC(=O)c3cc(NC(=O)c4cc(NC(=O)c5cc(NC(=O)c6cc(NC(=O)CCCNC(=O)c7cc(NC(=O)c8cc(NC(=O)c9nc(NC(=O)CCNC(=O)c%10nc(NC(=O)c%11cc(NC(C)=O)cn%11C)cn%10C)cn9C)cn8C)cn7C)cn6C)cn5C)cn4C)cn3C)ccc2[nH]1` (configuration not stated), the concentration in solution in data set [1] (solubility) was 180 µM (≈ 323 µg/mL). Besides, the half-life in [2] is 3.5 h.
`CC(=O)Nc1cn(C)c(C(=O)Nc2cc(C(=O)Nc3cc(C(=O)NCCC(=O)Nc4cc(C(=O)NCCCC(=O)Nc5cc(C(=O)NCCC(=O)Nc6cn(C)c(C(=O)Nc7ccc8[nH]c(C(=O)N9CC(CCl)c%10c9cc(O)c9ccccc%109)cc8c7)n6)n(C)c5)n(C)c4)n(C)c3)n(C)c2)n1` (configuration not stated): the IC50 with A549 came out at 51 nM; in the data set with DU-145, 28 nM.
Regarding `CC(=O)Nc1cn(C)c(C(=O)Nc2cn(C)c(C(=O)Nc3cc(C(=O)NCCC(=O)Nc4cn(C)c(C(=O)Nc5cn(C)c(C(=O)NCCCC(=O)Nc6cc(C(=O)Nc7cc(C(=O)NCCC(=O)Nc8cc(C(=O)Nc9ccc%10[nH]c(C(=O)N%11CC(CCl)c%12c%11cc(O)c%11ccccc%12%11)cc%10c9)n(C)c8)n(C)c7)n(C)c6)n5)n4)n(C)c3)n2)n1` (configuration not stated), the 50% inhibitory concentration (IC50) stood at 240 nM in the data set with A549 and 45 nM with DU-145. Moreover, in the data set with Nucleic Acid [3], the result was Active. Further, the Activity in the data set with Nucleic Acid [4] amounted to 11%; in the data set with Nucleic Acid [5], 47%.
Turning to `CC(=O)Nc1cc(C(=O)Nc2cn(C)c(C(=O)NCCC(=O)Nc3cn(C)c(C(=O)Nc4cc(C(=O)Nc5cc(C(=O)NCCCC(=O)Nc6cc(C(=O)Nc7cc(C(=O)Nc8cc(C(=O)Nc9cc(C(=O)Nc%10ccc%11[nH]c(C(=O)N%12CC(CCl)c%13c%12cc(O)c%12ccccc%13%12)cc%11c%10)n(C)c9)n(C)c8)n(C)c7)n(C)c6)n(C)c5)n(C)c4)n3)n2)n(C)c1` (configuration not stated), the IC50 in the data set on A549 worked out at 240 nM; in the data set on DU-145 it was 62 nM. Further, the outcome in the data set on Nucleic Acid [6] was Active.
As to `CC(=O)Nc1cn(C)c(C(=O)Nc2cn(C)c(C(=O)Nc3cc(C(=O)Nc4cc(C(=O)NCCCC(=O)Nc5cn(C)c(C(=O)Nc6cn(C)c(C(=O)Nc7ccc8[nH]c(C(=O)N9CC(CCl)c%10c9cc(O)c9ccccc%109)cc8c7)n6)n5)n(C)c4)n(C)c3)n2)n1` (configuration not stated), the concentration for half-maximal inhibition (IC50) in the data set with A549 stood at 135 nM; with DU-145, 47 nM.
Take `CC(=O)Nc1cc(C(=O)Nc2cn(C)c(C(=O)NCCC(=O)Nc3cn(C)c(C(=O)Nc4cc(C(=O)Nc5cc(C(=O)NCCCC(=O)Nc6cc(C(=O)Nc7cc(C(=O)Nc8cc(C(=O)Nc9cc(C(=O)Nc%10ccc%11[nH]c(C(=O)N%12CC(CCl)c%13c%12cc(OC(=O)NCCCN(C)C)c%12ccccc%13%12)cc%11c%10)n(C)c9)n(C)c8)n(C)c7)n(C)c6)n(C)c5)n(C)c4)n3)n2)n(C)c1` (configuration not stated): in [1], the solubility is 230 µM (≈ 418 µg/mL). For the same compound, the half-life in [2] is 1.1 h.
On to `CC(=O)Nc1cn(C)c(C(=O)Nc2cc(C(=O)Nc3cc(C(=O)NCCC(=O)Nc4cc(C(=O)Nc5cc(C(=O)NCCCC(=O)Nc6cc(C(=O)Nc7cc(C(=O)NCCC(=O)Nc8cn(C)c(C(=O)Nc9ccc%10[nH]c(C(=O)N%11CC(CCl)c%12c%11cc(O)c%11ccccc%12%11)cc%10c9)n8)n(C)c7)n(C)c6)n(C)c5)n(C)c4)n(C)c3)n(C)c2)n1` (configuration not stated), for which the IC50 in the data set on A549 is 29 nM; with DU-145, 7.9 nM. Besides, in the data set with Nucleic Acid [7], the result was Active. Besides, the Activity in the data set on Nucleic Acid [8] came out at 54%.
The compound `CC(=O)Nc1cc(C(=O)Nc2cn(C)c(C(=O)NCCC(=O)Nc3cn(C)c(C(=O)Nc4cc(C(=O)Nc5cc(C(=O)NCCCC(=O)Nc6cc(C(=O)Nc7cc(C(=O)Nc8cc(C(=O)Nc9cc(C(=O)Nc%10ccc%11[nH]c(C(=O)N%12CC(CCl)c%13c%12cc(OC(=O)[C@@H](N)CCCCN)c%12ccccc%13%12)cc%11c%10)n(C)c9)n(C)c8)n(C)c7)n(C)c6)n(C)c5)n(C)c4)n3)n2)n(C)c1` (some centres not stated) came in with a solubility in [1] of 1200 µM (≈ 2180 µg/mL). In addition, the half-life in data set [2] was under 1 h.
